For assay [1], the species on record is Homo sapiens. Description: Inhibition of CIP2A protein expression in human PLC5 cells at 2 uM by Western blotting analysis. The format is functional, cell-based. For orientation: A western blot detects proteins with antibodies after separation by electrophoresis.
The species named for assay [2] is Homo sapiens. Kind of assay: Induction of apoptosis in human PLC5 cells assessed as caspase-9 activation at 0.5 to 4 uM incubated for 48 hrs by Western blotting analysis. The class given is functional, cell-based.
The species entered for assay [3] is Homo sapiens. Description: Induction of apoptosis in human PLC5 cells assessed as induction of PARP cleavage at 0.5 to 4 uM incubated for 48 hrs by Western blotting analysis. The format is functional, cell-based.
Assay [4] has as its system HA22T cell line. Kind of assay: Induction of apoptosis in human HA22T cells assessed as induction of PARP cleavage at 0.5 to 4 uM incubated for 48 hrs by Western blotting analysis. The class given is functional, cell-based.
The subject of assay [5] is HA22T cell line. Kind of assay: Induction of apoptosis in human HA22T cells assessed as caspase-9 activation at 0.5 to 4 uM incubated for 48 hrs by Western blotting analysis. The format is functional, cell-based.
In assay [6] the test system is SK-HEP1. Kind of assay: Induction of apoptosis in human SKHEP1 cells assessed as induction of PARP cleavage at 0.5 to 4 uM incubated for 48 hrs by Western blotting analysis. The format is functional, cell-based.
For assay [7], the species on record is Homo sapiens. Kind of assay: Inhibition of His-tagged recombinant human SET1 protein (1 to 290 amino acids) expressed in Escherichia coli interaction with N-terminal GST-tagged recombinant human PP2A-C (1 to 309 amino acids) assessed as minimal concentration causing disruption of SET-PP2Ac binding by SPR assay.
Assay [8] is filed under the species Homo sapiens. Description: Induction of apoptosis in human PLC5 cells at 2 uM incubated for 24 hrs in presence of PP2A-C siRNA by annexin-V-FITC staining based by flow cytometry. The format is functional, cell-based. (In general: In flow cytometry, cells or beads pass a laser one at a time.)
Assay [9] is filed under the species Homo sapiens. Kind of assay: Inhibition of PP2A-B5 protein expression in human PLC5 cells at 1 uM incubated for 24 hrs by Western blotting analysis. The class given is functional, cell-based.
Assay [10] is filed under the species Homo sapiens. Description: Induction of apoptosis in human PLC5 cells assessed as accumulation at subG1 phase at 0.5 to 4 uM by flow cytometry. The class given is functional, cell-based.
The next assay concerns Mus musculus. Kind of assay: Suppression of CIP2A expression in tumor of human PLC5 cells xenografted in mouse at 10 mg/kg dosed for 4 weeks by Western blot analysis. The class given is functional, organism-based. On the technique in general: A xenograft is tissue or cells of one species grown in another, often human tumour cells in immunodeficient mice.
The target in assay [11] is T1, Serine/threonine-protein kinase AKT (Homo sapiens) (UniProt P31751+Q9Y243+P31749). Kind of assay: Inhibition of Akt phosphorylation at S473 residue in human PLC5 cells by Western blotting analysis. The class given is cell-based.
Assay [12] relates to HA22T cell line. Kind of assay: Inhibition of CIP2A protein expression in human HA22T cells by Western blotting analysis. The format is functional, cell-based.
For assay [13], the species on record is Homo sapiens. Description: Induction of apoptosis in human PLC5 cells at 2 uM incubated for 24 hrs in presence of 100 nM PP2A inhibitor okadaic acid by annexin-V-FITC staining based by flow cytometry. The class given is functional, cell-based.
A short description of assay [14]: Induction of apoptosis in human PLC5 cells >= 2 uM incubated for 48 hrs by annexin-V-FITC staining based by flow cytometry relative to control. The format is functional.
In assay [15] the test system is SK-HEP1. Description: Induction of necrosis in human SKHEP1 cells >= 2 uM incubated for 48 hrs by annexin-V-FITC staining based by flow cytometry relative to control. The class given is functional.
A further assay concerns Hep 3B2. Kind of assay: Inhibition of CIP2A protein expression in human Hep3B cells by Western blotting analysis. The format is functional, cell-based.
In assay [16] the test system is SK-HEP1. Description: Inhibition of PP2A-B5 protein expression in human SKHEP1 cells at 1 uM incubated for 24 hrs by Western blotting analysis. The format is functional, cell-based.
The test system of assay [17] is HA22T cell line. Kind of assay: Inhibition of PP2A-B5 protein expression in human HA22T cells at 1 uM incubated for 24 hrs by Western blotting analysis. The format is functional, cell-based.
In assay [18] the target is T1, Serine/threonine-protein kinase AKT (Homo sapiens). Description: Inhibition of Akt phosphorylation at S473 residue in human SKHEP1 cells by Western blotting analysis. The class given is cell-based.
For assay [19], the species on record is Homo sapiens. Kind of assay: Induction of apoptosis in human PLC5 cells assessed as caspase-3 activation at 0.5 to 4 uM incubated for 48 hrs by Western blotting analysis. The format is functional, cell-based.

Active and inactive are the calls of the source. The rule behind the calls is not given here.

T1 sequence (P31749 whole entry, looked up): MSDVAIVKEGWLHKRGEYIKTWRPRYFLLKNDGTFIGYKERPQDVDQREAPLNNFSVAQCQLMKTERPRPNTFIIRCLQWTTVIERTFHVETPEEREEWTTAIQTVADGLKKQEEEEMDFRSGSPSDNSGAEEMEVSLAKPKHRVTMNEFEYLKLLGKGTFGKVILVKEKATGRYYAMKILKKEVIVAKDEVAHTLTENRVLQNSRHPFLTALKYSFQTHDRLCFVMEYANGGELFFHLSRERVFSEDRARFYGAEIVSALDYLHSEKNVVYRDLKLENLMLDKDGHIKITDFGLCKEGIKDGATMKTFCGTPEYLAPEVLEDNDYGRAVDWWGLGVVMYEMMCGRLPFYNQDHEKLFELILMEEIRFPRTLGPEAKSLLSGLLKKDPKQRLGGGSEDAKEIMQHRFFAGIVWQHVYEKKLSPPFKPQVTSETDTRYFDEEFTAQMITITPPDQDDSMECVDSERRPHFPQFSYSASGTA
T1 sequence (P31751 whole entry, looked up): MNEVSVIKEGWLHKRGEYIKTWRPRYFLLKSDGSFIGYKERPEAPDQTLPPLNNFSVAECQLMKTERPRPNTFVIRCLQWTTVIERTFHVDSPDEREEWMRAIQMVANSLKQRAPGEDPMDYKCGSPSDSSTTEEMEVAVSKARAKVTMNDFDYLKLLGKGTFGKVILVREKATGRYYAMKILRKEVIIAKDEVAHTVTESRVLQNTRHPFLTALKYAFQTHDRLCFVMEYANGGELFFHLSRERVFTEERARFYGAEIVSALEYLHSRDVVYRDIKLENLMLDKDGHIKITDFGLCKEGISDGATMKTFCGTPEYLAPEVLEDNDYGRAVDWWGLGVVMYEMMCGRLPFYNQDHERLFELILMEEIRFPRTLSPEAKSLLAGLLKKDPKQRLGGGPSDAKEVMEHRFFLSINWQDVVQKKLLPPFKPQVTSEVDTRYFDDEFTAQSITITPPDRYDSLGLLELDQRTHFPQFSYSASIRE
T1 sequence (Q9Y243 whole entry, looked up): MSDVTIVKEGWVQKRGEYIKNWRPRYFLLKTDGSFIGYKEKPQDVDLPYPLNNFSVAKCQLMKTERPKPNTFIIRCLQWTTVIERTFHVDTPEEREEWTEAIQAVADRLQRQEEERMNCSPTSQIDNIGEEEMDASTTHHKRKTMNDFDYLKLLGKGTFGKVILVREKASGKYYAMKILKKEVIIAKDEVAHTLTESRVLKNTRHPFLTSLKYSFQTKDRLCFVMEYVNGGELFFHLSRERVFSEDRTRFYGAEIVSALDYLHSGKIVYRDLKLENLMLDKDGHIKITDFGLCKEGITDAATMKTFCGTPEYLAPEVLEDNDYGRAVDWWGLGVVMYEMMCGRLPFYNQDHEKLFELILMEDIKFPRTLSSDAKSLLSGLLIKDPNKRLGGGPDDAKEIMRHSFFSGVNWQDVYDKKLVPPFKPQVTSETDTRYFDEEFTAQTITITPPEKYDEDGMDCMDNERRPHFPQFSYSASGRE

In the case of `C#Cc1cccc(Nc2nc3ccccc3nc2Nc2cccc(C#C)c2)c1`, the inhibition entry in the assay listed under Homo sapiens [1], in the assay filed under Homo sapiens [9], with SK-HEP1 [16] and in the assay on HA22T cell line [17] was “inactive” throughout. For the same compound, the Activity result is “Dose-dependent effect” in the assay listed under Homo sapiens [2]; “Dose-dependent effect” in the assay listed under Homo sapiens [3]; “Dose-dependent effect” in the assay with HA22T cell line [4]; “Dose-dependent effect” in the assay with HA22T cell line [5]; “Dose-dependent effect” with SK-HEP1 [6]; 50% in [14]. In addition, the Activity in the assay on SK-HEP1 [15] was 50%; in the assay filed under Homo sapiens [19], “Dose-dependent effect”. Further, the MEC in the assay filed under Homo sapiens [7] is 100 to 200 nM. The result in the assay filed under Homo sapiens [8] and in the assay filed under Homo sapiens [13] was inactive. For the same compound, the outcome in the assay listed under Homo sapiens [10] and in the assay with Mus musculus was Active. Besides, the inhibition result (in assay [11]; in the assay with HA22T cell line [12]; with Hep 3B2; in assay [18]) was “Dose-dependent effect” each time.

The record behind these values is ChEMBL document CHEMBL4420066, “Aryl amine substituted quinoxaline used as anticancer drugs” (2017).
